According to ChEMBL document CHEMBL4507259 (2021):

What was measured:
[1] = biological target: Ephrin type-A receptor 7 (Homo sapiens) (UniProt Q15375); settings: Compound concentration 1000.0 nM
[2] = biological target: Mitogen-activated protein kinase kinase kinase 4 (Homo sapiens) (UniProt Q9Y6R4); settings: Compound concentration 1000.0 nM
[3] = biological target: T1, Alpha-2A adrenergic receptor (Homo sapiens) (UniProt P08913); test: alpha 2A (h) CEREP ligand profiling; settings: filed as antagonist, Compound concentration 10.0 uM
T1 sequence (whole entry): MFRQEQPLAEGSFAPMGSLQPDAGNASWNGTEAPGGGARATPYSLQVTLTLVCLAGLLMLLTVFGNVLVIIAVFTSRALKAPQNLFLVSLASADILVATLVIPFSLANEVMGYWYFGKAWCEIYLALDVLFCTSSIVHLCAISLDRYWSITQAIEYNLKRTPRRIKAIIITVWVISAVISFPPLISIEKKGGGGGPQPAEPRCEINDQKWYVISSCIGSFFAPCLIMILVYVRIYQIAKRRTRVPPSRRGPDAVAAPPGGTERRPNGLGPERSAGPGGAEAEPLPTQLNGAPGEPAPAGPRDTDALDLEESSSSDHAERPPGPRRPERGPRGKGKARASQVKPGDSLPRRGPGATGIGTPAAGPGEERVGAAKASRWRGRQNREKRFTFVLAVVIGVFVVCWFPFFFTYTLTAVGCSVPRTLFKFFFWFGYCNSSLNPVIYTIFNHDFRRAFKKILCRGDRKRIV

[4] = biological target: Serine/threonine-protein kinase BRSK2 (Homo sapiens) (UniProt Q8IWQ3); settings: Compound concentration 1000.0 nM
[5] = test system: Tyrosine-protein kinase ABL1 (Homo sapiens), P00519 [F317L]; settings: Compound concentration 1000.0 nM
[6] = biological target: Phosphatidylinositol 5-phosphate 4-kinase type-2 gamma (Homo sapiens) (UniProt Q8TBX8); settings: Compound concentration 1000.0 nM
Sequence of Phosphatidylinositol 5-phosphate 4-kinase type-2 gamma (Homo sapiens) (Q8TBX8 whole entry): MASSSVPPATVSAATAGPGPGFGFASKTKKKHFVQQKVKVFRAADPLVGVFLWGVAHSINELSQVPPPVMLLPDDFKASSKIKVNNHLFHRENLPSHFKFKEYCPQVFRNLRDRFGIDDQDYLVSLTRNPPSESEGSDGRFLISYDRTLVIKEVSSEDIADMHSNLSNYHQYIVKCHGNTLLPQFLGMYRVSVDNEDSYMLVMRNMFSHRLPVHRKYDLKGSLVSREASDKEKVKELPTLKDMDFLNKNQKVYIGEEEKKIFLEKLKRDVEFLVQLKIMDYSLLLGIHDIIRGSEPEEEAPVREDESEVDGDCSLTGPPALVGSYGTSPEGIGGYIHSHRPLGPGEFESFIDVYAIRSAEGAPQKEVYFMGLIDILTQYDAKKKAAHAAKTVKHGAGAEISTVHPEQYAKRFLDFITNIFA

[7] = biological target: Platelet-derived growth factor receptor alpha (Homo sapiens) (UniProt P16234); settings: Compound concentration 1000.0 nM
[8] = biological target: Calcium/calmodulin-dependent protein kinase type 1B (Homo sapiens) (UniProt Q6P2M8); settings: Compound concentration 1000.0 nM
[9] = biological target: Sodium-dependent serotonin transporter (Homo sapiens, UniProt P31645); settings: Compound concentration 10.0 uM
Sequence of Sodium-dependent serotonin transporter (P31645 whole entry, looked up): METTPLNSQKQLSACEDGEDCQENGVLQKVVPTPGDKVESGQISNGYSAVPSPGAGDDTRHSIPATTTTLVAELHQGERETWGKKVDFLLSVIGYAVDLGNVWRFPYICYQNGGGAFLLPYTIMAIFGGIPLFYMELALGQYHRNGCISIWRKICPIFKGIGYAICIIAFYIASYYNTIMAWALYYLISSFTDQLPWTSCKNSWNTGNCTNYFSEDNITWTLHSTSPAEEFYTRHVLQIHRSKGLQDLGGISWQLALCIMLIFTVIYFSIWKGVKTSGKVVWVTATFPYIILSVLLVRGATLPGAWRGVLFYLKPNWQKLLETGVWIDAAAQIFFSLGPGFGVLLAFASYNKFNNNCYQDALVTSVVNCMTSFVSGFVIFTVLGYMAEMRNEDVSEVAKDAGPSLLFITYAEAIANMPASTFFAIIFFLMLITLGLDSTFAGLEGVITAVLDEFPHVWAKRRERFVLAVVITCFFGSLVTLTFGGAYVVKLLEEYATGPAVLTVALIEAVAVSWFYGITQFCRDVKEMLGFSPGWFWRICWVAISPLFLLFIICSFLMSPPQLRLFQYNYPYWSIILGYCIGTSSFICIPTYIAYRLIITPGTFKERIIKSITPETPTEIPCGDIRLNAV

[10] = test system: Tyrosine-protein kinase ABL1 (Homo sapiens), P00519 [Q252H]; settings: Compound concentration 1000.0 nM
[11] = biological target: Ephrin type-A receptor 5 (Homo sapiens) (UniProt P54756); settings: Compound concentration 1000.0 nM
[12] = biological target: Myosin-IIIa (Homo sapiens) (UniProt Q8NEV4); settings: Compound concentration 1000.0 nM
[13] = biological target: SRSF protein kinase 2 (Homo sapiens) (UniProt P78362); settings: Compound concentration 1000.0 nM
[14] = biological target: Vascular endothelial growth factor receptor 1 (Homo sapiens) (UniProt P17948); settings: Compound concentration 1000.0 nM
[15] = biological target: Interleukin-1 receptor-associated kinase 1 (Homo sapiens) (UniProt P51617); settings: Compound concentration 1000.0 nM
[16] = biological target: Mitogen-activated protein kinase kinase kinase kinase 1 (Homo sapiens) (UniProt Q92918); settings: Compound concentration 1000.0 nM
[17] = biological target: Rho-associated protein kinase 1 (Homo sapiens) (UniProt Q13464); settings: Compound concentration 1000.0 nM
[18] = biological target: Mitogen-activated protein kinase kinase kinase 11 (Homo sapiens) (UniProt Q16584); settings: Compound concentration 1000.0 nM
[19] = biological target: Serine/threonine-protein kinase TNNI3K (Homo sapiens) (UniProt Q59H18); settings: Compound concentration 1000.0 nM
[20] = biological target: Focal adhesion kinase 1 (Homo sapiens) (UniProt Q05397); settings: Compound concentration 1000.0 nM
Sequence of Focal adhesion kinase 1 (Homo sapiens) (Q05397 2-1052 limits assumed): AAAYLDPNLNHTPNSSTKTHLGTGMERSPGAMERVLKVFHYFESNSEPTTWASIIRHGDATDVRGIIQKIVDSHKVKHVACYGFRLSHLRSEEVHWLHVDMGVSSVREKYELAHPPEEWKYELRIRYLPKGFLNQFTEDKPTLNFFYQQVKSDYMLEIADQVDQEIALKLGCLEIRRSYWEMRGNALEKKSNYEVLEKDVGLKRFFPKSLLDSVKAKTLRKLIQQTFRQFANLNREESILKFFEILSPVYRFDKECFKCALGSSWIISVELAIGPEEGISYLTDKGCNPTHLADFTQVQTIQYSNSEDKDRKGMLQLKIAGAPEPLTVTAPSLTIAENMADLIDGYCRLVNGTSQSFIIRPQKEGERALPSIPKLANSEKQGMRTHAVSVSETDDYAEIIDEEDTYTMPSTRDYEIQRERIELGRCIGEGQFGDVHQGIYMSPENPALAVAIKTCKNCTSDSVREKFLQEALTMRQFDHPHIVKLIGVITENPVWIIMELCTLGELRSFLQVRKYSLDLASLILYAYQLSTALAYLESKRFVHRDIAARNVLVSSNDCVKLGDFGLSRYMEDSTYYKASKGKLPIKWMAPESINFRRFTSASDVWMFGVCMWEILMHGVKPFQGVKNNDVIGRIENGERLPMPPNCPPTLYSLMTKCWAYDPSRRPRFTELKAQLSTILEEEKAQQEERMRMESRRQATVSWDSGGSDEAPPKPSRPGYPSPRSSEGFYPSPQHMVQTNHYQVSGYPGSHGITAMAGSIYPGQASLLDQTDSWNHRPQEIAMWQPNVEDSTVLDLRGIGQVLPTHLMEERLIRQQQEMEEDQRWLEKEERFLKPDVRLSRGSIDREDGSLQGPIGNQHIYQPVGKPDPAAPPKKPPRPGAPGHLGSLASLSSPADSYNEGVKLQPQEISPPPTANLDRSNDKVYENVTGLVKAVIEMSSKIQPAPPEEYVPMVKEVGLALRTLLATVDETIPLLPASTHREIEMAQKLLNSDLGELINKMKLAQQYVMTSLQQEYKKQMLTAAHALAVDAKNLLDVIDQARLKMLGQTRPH

[21] = biological target: Phosphatidylinositol 4-kinase beta (Homo sapiens) (UniProt Q9UBF8); settings: Compound concentration 1000.0 nM
[22] = biological target: GABA-A receptor; anion channel (Rattus norvegicus) (UniProt O09028+P15431+P18506+P18508+P19969+P20236+P23574+P23576+P28471+P28473+P30191+P62813+P63079+P63138+Q91ZM7+Q9ES14); settings: Compound concentration 10.0 uM
[23] = biological target: Tumor necrosis factor (Homo sapiens) (UniProt P01375); test: TNF-alpha (h) CEREP ligand profiling; settings: filed as agonist, Compound concentration 10.0 uM
Sequence of Tumor necrosis factor (Homo sapiens) (P01375 whole entry): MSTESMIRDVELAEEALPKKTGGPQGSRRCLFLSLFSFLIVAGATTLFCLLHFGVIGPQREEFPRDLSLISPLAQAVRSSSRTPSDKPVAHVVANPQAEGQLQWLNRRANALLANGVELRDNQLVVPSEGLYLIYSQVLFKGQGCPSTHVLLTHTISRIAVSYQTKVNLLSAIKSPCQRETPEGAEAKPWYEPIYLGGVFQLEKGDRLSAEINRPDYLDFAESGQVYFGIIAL

[24] = biological target: RAC-gamma serine/threonine-protein kinase (Homo sapiens) (UniProt Q9Y243); settings: Compound concentration 1000.0 nM
Sequence of RAC-gamma serine/threonine-protein kinase (Homo sapiens) (Q9Y243 whole entry): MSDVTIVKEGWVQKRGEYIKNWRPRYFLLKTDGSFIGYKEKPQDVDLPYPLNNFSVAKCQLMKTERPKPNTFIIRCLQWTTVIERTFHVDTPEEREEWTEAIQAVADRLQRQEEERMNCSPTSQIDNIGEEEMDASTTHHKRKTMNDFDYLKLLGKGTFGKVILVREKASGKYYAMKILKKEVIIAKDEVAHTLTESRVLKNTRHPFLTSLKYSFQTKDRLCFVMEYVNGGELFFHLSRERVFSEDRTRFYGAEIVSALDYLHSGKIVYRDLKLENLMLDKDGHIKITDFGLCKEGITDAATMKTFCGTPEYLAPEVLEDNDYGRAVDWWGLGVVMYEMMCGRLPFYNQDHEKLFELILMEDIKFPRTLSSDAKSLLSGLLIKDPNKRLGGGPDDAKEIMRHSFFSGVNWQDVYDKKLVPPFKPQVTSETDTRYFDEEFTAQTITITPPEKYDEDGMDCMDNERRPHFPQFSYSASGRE

[25] = biological target: 5-hydroxytryptamine receptor 4 (Homo sapiens) (UniProt Q13639); test: 5-HT4e (h) CEREP ligand profiling; settings: filed as antagonist, Compound concentration 10.0 uM
[26] = biological target: Serine/threonine-protein kinase ULK2 (Homo sapiens) (UniProt Q8IYT8); settings: Compound concentration 1000.0 nM
[27] = biological target: Mitogen-activated protein kinase kinase kinase kinase 4 (Homo sapiens) (UniProt O95819); settings: Compound concentration 1000.0 nM
Sequence of Mitogen-activated protein kinase kinase kinase kinase 4 (Homo sapiens) (O95819 2-1239 limits assumed): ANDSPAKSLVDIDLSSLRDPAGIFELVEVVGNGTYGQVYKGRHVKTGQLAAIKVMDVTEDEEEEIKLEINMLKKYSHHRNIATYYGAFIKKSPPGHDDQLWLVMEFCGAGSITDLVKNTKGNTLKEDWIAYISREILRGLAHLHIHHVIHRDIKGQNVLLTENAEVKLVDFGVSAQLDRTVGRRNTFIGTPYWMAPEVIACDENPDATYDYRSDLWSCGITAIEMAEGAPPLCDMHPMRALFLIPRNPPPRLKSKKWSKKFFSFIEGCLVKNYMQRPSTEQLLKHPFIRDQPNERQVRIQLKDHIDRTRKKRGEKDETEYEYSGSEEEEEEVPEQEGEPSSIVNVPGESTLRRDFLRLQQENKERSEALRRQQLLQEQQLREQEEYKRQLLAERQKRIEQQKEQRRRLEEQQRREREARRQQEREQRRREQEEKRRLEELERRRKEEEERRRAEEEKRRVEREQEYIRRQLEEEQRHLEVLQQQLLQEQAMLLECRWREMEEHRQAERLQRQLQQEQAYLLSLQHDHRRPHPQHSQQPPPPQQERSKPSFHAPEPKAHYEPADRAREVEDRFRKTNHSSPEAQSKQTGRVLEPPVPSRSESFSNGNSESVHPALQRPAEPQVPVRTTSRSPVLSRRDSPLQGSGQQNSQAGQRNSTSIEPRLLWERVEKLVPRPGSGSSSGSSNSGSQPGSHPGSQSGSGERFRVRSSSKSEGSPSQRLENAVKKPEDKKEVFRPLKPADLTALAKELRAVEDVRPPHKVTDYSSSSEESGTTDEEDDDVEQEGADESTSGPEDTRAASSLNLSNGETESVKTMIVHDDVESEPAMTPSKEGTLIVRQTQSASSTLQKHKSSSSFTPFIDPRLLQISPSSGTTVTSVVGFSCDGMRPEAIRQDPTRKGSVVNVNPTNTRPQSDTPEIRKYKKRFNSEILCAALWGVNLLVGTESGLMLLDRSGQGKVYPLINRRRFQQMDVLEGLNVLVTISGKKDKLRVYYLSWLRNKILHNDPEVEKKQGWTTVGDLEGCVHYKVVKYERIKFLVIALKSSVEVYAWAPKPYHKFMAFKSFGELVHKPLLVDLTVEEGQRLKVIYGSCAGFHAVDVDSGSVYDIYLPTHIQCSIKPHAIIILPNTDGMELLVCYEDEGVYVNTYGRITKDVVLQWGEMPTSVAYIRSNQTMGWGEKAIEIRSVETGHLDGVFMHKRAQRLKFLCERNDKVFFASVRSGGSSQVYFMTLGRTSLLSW

[28] = biological target: Cyclin-dependent kinase 4 (Homo sapiens) (UniProt P11802); settings: Compound concentration 1000.0 nM
[29] = biological target: Ephrin type-A receptor 4 (Homo sapiens) (UniProt P54764); settings: Compound concentration 1000.0 nM
[30] = biological target: T2, Muscarinic acetylcholine receptor M2 (Homo sapiens) (UniProt P08172); settings: Compound concentration 10.0 uM
T2 sequence (whole entry): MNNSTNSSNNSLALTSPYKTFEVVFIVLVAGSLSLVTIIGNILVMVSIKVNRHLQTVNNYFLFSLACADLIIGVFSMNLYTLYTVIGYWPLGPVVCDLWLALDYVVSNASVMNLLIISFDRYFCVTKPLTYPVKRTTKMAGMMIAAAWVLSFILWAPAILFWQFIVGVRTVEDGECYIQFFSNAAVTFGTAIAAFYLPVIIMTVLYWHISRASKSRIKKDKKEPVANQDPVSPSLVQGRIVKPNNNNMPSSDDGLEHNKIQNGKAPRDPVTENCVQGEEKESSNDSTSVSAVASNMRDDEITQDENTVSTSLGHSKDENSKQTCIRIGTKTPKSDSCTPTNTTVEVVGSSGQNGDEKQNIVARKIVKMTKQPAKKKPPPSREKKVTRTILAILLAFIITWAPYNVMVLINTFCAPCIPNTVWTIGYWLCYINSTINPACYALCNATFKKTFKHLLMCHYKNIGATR

[31] = biological target: TRAF2 and NCK-interacting protein kinase (Homo sapiens) (UniProt Q9UKE5); settings: Compound concentration 1000.0 nM

Sequence of Ephrin type-A receptor 7 (Homo sapiens) (Q15375 28-998 limits assumed): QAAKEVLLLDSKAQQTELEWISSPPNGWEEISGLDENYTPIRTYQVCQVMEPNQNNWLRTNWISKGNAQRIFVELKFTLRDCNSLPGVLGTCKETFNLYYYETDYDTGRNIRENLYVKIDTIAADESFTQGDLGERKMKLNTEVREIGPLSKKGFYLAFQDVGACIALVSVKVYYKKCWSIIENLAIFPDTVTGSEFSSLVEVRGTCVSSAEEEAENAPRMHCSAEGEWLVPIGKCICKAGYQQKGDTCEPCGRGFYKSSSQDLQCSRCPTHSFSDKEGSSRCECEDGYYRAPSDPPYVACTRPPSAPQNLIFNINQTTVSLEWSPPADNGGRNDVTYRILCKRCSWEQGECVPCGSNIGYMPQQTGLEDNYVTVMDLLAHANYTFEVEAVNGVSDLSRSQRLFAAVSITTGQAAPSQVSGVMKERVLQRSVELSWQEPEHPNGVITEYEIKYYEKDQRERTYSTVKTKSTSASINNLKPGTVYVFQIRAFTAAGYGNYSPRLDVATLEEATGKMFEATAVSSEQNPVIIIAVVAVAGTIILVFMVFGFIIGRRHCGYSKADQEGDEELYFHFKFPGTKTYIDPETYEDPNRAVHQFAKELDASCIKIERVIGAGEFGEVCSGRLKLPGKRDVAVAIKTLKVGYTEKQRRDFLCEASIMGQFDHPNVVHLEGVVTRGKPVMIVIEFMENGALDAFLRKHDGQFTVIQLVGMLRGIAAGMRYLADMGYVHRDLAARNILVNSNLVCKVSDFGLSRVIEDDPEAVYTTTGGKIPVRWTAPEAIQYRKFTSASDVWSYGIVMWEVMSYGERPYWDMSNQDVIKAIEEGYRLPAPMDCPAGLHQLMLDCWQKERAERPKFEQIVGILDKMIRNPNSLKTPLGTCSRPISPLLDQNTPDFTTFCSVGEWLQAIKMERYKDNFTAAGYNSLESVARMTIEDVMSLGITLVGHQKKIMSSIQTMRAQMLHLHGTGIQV

Row | Structure (SMILES) | residual activity [1] | residual activity [2] | inhibition [3] | residual activity [4] | residual activity [5] | residual activity [6] | residual activity [7] | residual activity [8] | inhibition [9] | residual activity [10] | residual activity [11] | residual activity [12] | residual activity [13] | residual activity [14] | residual activity [15] | residual activity [16] | residual activity [17] | residual activity [18] | residual activity [19] | residual activity [20] | also measured
1 | CNC(=O)Nc1ccc2c(c1)CC[C@@]21OC(=O)N(CC(=O)N(Cc2ccc(F)cc2)[C@@H](C)C(F)(F)F)C1=O [A-485] | 88% | 89% | 11% | 70% | 64% | 93% | 93% | 100% | 95.6% | 72% | 96% | 100% | 100% | 100% | 71% | 99% | 72% | 73% | 97% | 94% | residual activity [21]: 74%; inhibition [22]: 8.97%; inhibition [23]: 1%; residual activity [24]: 100%; inhibition [25]: 10%; residual activity [26]: 82%; residual activity [27]: 87%; residual activity [28]: 55%; residual activity [29]: 89%; inhibition [30]: -0.28%; residual activity [31]: 93%
2 | CNC(=O)Nc1ccc2c(c1)[C@@]1(CC2)OC(=O)N(CC(=O)N(Cc2ccc(F)cc2)[C@@H](C)C(F)(F)F)C1=O [A-486] | 100% | 87% | -7% | 90% | 66% | 100% | 83% | 90% | 31% | 88% | 94% | 100% | 100% | 100% | 88% | 90% | 81% | 91% | 98% | 100% | residual activity [21]: 71%; inhibition [22]: 9.54%; inhibition [23]: 1%; residual activity [24]: 94%; inhibition [25]: 9%; residual activity [26]: 100%; residual activity [27]: 100%; residual activity [28]: 73%; residual activity [29]: 86%; inhibition [30]: 3.15%; residual activity [31]: 87%
